{
  "source": "patent US20030176503A1",
  "about": "“Treating hepatitis C viral infections with thiosemicarbazone compounds” (priority 2001, published 2003)",
  "key": {"[1]": {"test_system": "HCV replication in Huh7_HBI10A cells containing a HCV-replicon", "test": "RHEPLISA assay, cell-based assay for measuring HCV replication (NS3 ELISA)", "design": "species or system hepatitis C virus", "details": "at 40 μM", "description": "A cell-based assay for measuring the HCV replication (RHEPLISA) was developed in a 96-well microplate format. The assay utilizes Huh-7 cellular clone (Huh7_HBI10A) containing a HCV-replicon and is based on the detection of the viral NS3 protein by ELISA. About 5000 Huh7_HBI10A cells (or Huh-7 cells as negative control), resuspended in 100 μL of complete DMEM were seeded into each well of a 96 well microtiter plate (Falcon sterile by Becton Dickinson). After 4 hours, 50 μL of an appropriate dissolution medium (e.g., DMEM) containing the compounds to test or DMSO (3%) were added, and incubated (37° C., 5% CO2) for 4 days. The medium was removed by inversion and the cells were fixed by addition of 200 μ/well of ice-cold isopropanol 100%. […]\nWhen secondary antibody AP-conjugated was used, 100 μL of AP substrate (SIGMA 104 Phosphatase substrate tablets; i.e., one tablet in 5 ml of AP buffer: diethanolamine solution 10%, pH 9.6-9.8.) were added to each well, and the plate was read in a conventional ELISA plate reader set at 405-620 nm.\nWhen peroxidase-conjugated secondary was used, 100 μL of TMB substrate (SIGMA) were added to each well, and the plate was incubated for 20′ in the dark. 50 μL of 0.5M H2SO4 were then added, and the plate was read in a conventional ELISA plate reader set at 450-620 nm."}, "Huh7_HBI10A cells": {"test_system": "Huh7_HBI10A cells", "test": "Cytotoxicity assay (SRB)", "type": "cell-based, human", "details": "at 40 μM", "description": "About 5000 Huh7_HBI10A cells, resuspended in 100 μL of complete DMEM were seeded into each well of a 96 well microtiter plate (Falcon sterile by Becton Dickinson) and incubated (37° C., 5% CO2) for 24 hours. The medium was removed and the cells were fixed by incubation with 50 μL of 50% TCA for 1 hour at 4° C., 200 μL of ice-cold isopropanol 100% for 20 minutes at 4° C., or 100 μL of 10% paraformaldehyde for 20 minutes at room temperature. The plate was washed with water when either TCA or paraformaldehyde was used to fix the cells and with PBS 1× when isopropanol was used to fix the cells. All washings were run 3 times. After drying the plate, 200 μL of SRB 1× solution (prepared fresh from a SRB solution 10×: 4% sulforhodamine B (Sigma) in 10% acetic acid) was added to each well and incubated for 30 minutes at room temperature. The SRB 1× solution was removed by inversion and the plate was washed in 1% acetic acid 3 times. To each well was added 200 μL of 10 mM Tris pH 10.5, the plate was shaken till the color of the solution in the wells was uniform, and the plate was read in a conventional ELISA plate reader set at 570 nm."}},
  "data": [
    {"smiles": "NC(=S)NN=Cc1ccccc1", "note": "[benzaldehyde thiosemicarbazone]", "values": [
      {"measurement": "anti-HCV activity in the RHEPLISA assay", "setting": "[1]", "result": "no anti-HCV activity"},
      {"measurement": "cytotoxic inhibition", "setting": "Huh7_HBI10A cells", "result": "no cytotoxic inhibition"}
    ]}
  ]
}
